Measurements: patent US11713338B2, “Cyclic peptides multimers targeting α-4-β-7 integrin” (priority 2016, dated 2023)
Where two headings read alike, the source gives them in different places.

Columns and labels:
[1] = target: T1, integrin α4β1 (RAMOS human cells adhering to VCAM-1) (Homo sapiens, UniProt P05556+P13612); test: Integrin α4β1-VCAM cell adhesion assay (RAMOS cells); assay type: cell-based
T1 construct: Ramos cells, which express integrin α4β1; host or cells: RAMOS
Method: Integrin α4β1-VCAM Cell Adhesion Assay
The plate was incubated overnight at 4° C. and washed twice with 150 μl per well wash buffer (0.05% Tween 20 in PBS), blocked with 250 μl per well blocking buffer (1% non-fat dry milk in PBS), for 1 hour at room temperature. During blocking step, RAMOS cells were resuspended at 10 million cells/ml in PBS containing […] and incubated at 37° C. for 30 min in a 50 ml tube. […] The plate was emptied by inverting and blotting on paper towels and washed manually twice with PBS. […] To calculate the dose response, the fluorescence value of control wells not containing cells was subtracted from each test well.

[2] = target: T2, recombinant integrin α4β7 (Homo sapiens, UniProt P13612+P26010, DEL724-798); test: Integrin α4β7—MAdCAM-1 ELISA competition assay; assay type: binding; conditions: read-out: ELISA α4β7 Assay IC50
T2 construct: purchased R&D Systems 5397-A3-050
T2 sequence (P13612 34-970 limits assumed): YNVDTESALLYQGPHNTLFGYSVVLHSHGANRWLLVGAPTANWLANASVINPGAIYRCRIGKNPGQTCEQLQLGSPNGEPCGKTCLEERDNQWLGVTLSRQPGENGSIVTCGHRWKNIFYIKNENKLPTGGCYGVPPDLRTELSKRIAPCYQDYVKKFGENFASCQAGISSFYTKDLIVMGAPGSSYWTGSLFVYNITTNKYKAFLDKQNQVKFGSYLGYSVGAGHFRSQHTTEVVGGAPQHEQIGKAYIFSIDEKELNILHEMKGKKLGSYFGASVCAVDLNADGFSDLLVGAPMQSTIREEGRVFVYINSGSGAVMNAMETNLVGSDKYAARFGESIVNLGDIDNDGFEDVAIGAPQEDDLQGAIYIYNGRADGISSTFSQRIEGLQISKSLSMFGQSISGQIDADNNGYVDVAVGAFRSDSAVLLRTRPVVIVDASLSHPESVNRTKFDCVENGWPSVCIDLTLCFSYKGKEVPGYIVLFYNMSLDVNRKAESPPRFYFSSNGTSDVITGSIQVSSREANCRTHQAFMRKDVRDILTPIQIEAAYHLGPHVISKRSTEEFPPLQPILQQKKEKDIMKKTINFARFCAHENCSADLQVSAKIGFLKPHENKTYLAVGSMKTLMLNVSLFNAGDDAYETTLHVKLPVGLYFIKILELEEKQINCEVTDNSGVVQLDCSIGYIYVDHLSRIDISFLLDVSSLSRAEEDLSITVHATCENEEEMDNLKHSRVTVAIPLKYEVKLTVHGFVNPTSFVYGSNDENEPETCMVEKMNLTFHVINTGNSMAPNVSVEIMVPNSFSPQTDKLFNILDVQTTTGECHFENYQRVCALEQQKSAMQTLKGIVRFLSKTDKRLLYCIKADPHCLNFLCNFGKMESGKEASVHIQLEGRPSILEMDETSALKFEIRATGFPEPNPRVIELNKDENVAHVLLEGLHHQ
T2 sequence (P26010 20-723 limits assumed): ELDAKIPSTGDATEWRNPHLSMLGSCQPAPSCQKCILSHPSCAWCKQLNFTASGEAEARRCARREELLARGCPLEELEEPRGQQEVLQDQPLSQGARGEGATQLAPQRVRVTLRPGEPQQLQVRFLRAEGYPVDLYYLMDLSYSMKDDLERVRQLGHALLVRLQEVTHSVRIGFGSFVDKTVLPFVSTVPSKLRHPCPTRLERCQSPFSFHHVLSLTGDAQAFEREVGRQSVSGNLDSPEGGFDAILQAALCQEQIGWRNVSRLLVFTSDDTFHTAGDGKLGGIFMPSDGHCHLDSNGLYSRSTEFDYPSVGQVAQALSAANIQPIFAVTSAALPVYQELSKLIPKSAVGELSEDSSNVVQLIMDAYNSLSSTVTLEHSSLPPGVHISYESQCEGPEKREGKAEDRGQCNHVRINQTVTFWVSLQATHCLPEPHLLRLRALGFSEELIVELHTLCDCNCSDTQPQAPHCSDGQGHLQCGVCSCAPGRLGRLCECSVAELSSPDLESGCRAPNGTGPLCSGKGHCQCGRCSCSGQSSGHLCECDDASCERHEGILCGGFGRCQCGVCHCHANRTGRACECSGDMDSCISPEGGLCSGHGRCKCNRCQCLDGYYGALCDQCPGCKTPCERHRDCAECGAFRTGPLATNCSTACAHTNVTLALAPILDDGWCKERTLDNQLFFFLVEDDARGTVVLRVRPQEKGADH

[3] = Ramos cells adhering to VCAM, read-out: Ramos Adhesion α4β1/VCAM IC50
[4] = ratio of cell adhesion IC50s, Ramos α4β1/VCAM over RPMI8866 α4β7/MAdCAM

T1 sequence (P13612 34-1032): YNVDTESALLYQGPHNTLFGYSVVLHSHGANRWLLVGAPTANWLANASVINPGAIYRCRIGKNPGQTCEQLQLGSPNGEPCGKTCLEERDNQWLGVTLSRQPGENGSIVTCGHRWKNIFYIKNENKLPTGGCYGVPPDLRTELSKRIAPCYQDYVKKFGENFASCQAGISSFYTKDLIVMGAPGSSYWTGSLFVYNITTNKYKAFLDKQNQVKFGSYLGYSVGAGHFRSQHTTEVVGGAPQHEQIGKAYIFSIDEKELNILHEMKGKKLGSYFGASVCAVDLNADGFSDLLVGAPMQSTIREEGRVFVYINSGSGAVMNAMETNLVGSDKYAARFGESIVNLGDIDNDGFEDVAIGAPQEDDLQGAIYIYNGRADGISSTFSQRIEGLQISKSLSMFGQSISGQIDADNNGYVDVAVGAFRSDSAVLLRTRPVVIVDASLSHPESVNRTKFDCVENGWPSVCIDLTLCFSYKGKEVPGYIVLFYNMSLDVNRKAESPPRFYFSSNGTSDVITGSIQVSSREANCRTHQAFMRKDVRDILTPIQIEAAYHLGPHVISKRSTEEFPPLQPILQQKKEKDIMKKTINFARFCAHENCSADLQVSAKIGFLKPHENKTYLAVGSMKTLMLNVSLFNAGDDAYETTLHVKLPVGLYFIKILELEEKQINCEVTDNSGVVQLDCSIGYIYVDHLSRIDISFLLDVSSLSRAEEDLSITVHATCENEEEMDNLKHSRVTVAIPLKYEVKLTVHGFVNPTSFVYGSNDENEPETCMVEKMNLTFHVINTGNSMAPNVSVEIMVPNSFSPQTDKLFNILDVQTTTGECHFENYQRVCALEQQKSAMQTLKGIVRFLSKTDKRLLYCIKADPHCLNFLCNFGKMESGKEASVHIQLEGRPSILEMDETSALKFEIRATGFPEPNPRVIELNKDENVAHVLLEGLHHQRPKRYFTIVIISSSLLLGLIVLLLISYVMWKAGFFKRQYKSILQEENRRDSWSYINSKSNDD
T1 sequence (P05556 21-798): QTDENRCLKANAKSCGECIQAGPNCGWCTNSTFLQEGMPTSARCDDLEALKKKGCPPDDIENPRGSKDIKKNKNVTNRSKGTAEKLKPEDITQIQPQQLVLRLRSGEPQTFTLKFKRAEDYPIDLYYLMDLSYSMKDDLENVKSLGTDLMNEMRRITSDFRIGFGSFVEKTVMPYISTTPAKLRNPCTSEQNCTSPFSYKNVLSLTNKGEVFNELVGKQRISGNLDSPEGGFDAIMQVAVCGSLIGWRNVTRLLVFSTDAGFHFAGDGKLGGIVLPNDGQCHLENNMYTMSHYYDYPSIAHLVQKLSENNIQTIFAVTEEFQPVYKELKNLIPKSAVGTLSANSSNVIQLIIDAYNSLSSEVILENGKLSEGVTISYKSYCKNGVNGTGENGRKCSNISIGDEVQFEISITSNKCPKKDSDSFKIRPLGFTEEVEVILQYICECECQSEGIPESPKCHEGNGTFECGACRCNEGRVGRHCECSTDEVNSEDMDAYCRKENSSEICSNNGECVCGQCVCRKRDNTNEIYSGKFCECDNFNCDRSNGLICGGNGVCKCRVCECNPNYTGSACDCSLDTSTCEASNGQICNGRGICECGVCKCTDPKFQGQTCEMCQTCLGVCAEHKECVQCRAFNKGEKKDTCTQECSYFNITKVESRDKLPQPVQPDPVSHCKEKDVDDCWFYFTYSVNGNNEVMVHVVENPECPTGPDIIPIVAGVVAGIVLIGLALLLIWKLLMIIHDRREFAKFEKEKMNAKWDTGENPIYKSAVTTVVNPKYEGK

Row | SMILES | IC50 [1, 3] | Ratio Ramos/RPMI [1, 4] | IC50 [2] | further results
1 | CC(C)C[C@@H]1NC(=O)c2ccc(-c3ccc(N4CCN(C(=O)COCC(=O)N5CCN(c6ccc(-c7ccc8cc7CNC(=O)[C@@H]7CCCN7[C@H](C(=O)NC(C)(C)C)[C@H](C)NC(=O)[C@H]([C@@H](C)O)NC(=O)[C@H](CC(=O)O)NC(=O)[C@H](CC(C)C)NC8=O)cc6)CC5)CC4)cc3)c(c2)CNC(=O)[C@@H]2CCCN2[C@H](C(=O)NC(C)(C)C)[C@H](C)NC(=O)[C@H]([C@@H](C)O)NC(=O)[C@H](CC(=O)O)NC1=O [Compound 390] | 857 nM | 66 | 8.3 nM | –
2 | CC(C)C[C@@H]1NC(=O)c2ccc(-c3ccc(N4CCN(C(=O)CCCCCCCCCCC(=O)N5CCN(c6ccc(-c7ccc8cc7CNC(=O)[C@@H]7CCCN7[C@H](C(=O)NC(C)(C)C)[C@H](C)NC(=O)[C@H]([C@@H](C)O)NC(=O)[C@H](CC(=O)O)NC(=O)[C@H](CC(C)C)NC8=O)cc6)CC5)CC4)cc3)c(c2)CNC(=O)[C@@H]2CCCN2[C@H](C(=O)NC(C)(C)C)[C@H](C)NC(=O)[C@H]([C@@H](C)O)NC(=O)[C@H](CC(=O)O)NC1=O [Compound 392] | 1840 nM | 65 | 18 nM | –
3 | CC(C)C[C@@H]1NC(=O)C[C@H](CCCCN)N(C)C(=O)[C@H](CCCCN)NC(=O)[C@@H]2CCCN2[C@H](C(=O)NC(C)(C)C)[C@H](C)NC(=O)[C@H]([C@@H](C)O)NC(=O)[C@H](CC(=O)O)NC1=O [Compound 456] | – | – | – | selectivity α4β7 versus α4β1 cell adhesion assays ([1]; RPMI8866 vs Ramos cell adhesion): 45 fold; IC50 ([1]; Ramos cells, VCAM, read-out: Ramos Adhesion a4b1/VCAM IC50): 8920 nM; Ratio Ramos/RPMI ([1]; ratio of Ramos a4b1/VCAM adhesion IC50 to RPMI8866 a4b7/MAdCAM adhesion IC50): 45
4 | CC(C)C[C@@H]1NC(=O)c2ccc(-c3ccc(N4CCN(C(=O)[C@H]5CCC[C@H]5C(=O)N5CCN(c6ccc(-c7ccc8cc7CNC(=O)[C@@H]7CCCN7[C@H](C(=O)NC(C)(C)C)[C@H](C)NC(=O)[C@H]([C@@H](C)O)NC(=O)[C@H](CC(=O)O)NC(=O)[C@H](CC(C)C)NC8=O)cc6)CC5)CC4)cc3)c(c2)CNC(=O)[C@@H]2CCCN2[C@H](C(=O)NC(C)(C)C)[C@H](C)NC(=O)[C@H]([C@@H](C)O)NC(=O)[C@H](CC(=O)O)NC1=O [Compound 458] | 990 nM | 23 | 6.4 nM | –
5 | CC(C)C[C@@H]1NC(=O)c2ccc(-c3ccc(N4CCN(C(=O)C56CC7CC(C5)CC(C(=O)N5CCN(c8ccc(-c9ccc%10cc9CNC(=O)[C@@H]9CCCN9[C@H](C(=O)NC(C)(C)C)[C@H](C)NC(=O)[C@H]([C@@H](C)O)NC(=O)[C@H](CC(=O)O)NC(=O)[C@H](CC(C)C)NC%10=O)cc8)CC5)(C7)C6)CC4)cc3)c(c2)CNC(=O)[C@@H]2CCCN2[C@H](C(=O)NC(C)(C)C)[C@H](C)NC(=O)[C@H]([C@@H](C)O)NC(=O)[C@H](CC(=O)O)NC1=O [Compound 460] | 1850 nM | 30 | 14 nM | –
6 | CC(C)C[C@@H]1NC(=O)c2ccc(-c3ccc(N4CCN(C(=O)C5(C(=O)N6CCN(c7ccc(-c8ccc9cc8CNC(=O)[C@@H]8CCCN8[C@H](C(=O)NC(C)(C)C)[C@H](C)NC(=O)[C@H]([C@@H](C)O)NC(=O)[C@H](CC(=O)O)NC(=O)[C@H](CC(C)C)NC9=O)cc7)CC6)Cc6ccccc6C5)CC4)cc3)c(c2)CNC(=O)[C@@H]2CCCN2[C@H](C(=O)NC(C)(C)C)[C@H](C)NC(=O)[C@H]([C@@H](C)O)NC(=O)[C@H](CC(=O)O)NC1=O [Compound 461] | 1220 nM | 31 | 18 nM | –
7 | COc1cc(C(=O)N2CCN(c3ccc(-c4ccc5cc4CNC(=O)[C@@H]4CCCN4[C@H](C(=O)NC(C)(C)C)[C@H](C)NC(=O)[C@H]([C@@H](C)O)NC(=O)[C@H](CC(=O)O)NC(=O)[C@H](CC(C)C)NC5=O)cc3)CC2)cc(-c2ccc(C(=O)N3CCN(c4ccc(-c5ccc6cc5CNC(=O)[C@@H]5CCCN5[C@H](C(=O)NC(C)(C)C)[C@H](C)NC(=O)[C@H]([C@@H](C)O)NC(=O)[C@H](CC(=O)O)NC(=O)[C@H](CC(C)C)NC6=O)cc4)CC3)cc2F)c1 [Compound 464] | 1550 nM | – | 61 nM | –
8 | CC(C)C[C@@H]1NC(=O)c2ccc(-c3ccc(N4CCN(C(=O)c5cc(F)ccc5-c5ccc(F)cc5C(=O)N5CCN(c6ccc(-c7ccc8cc7CNC(=O)[C@@H]7CCCN7[C@H](C(=O)NC(C)(C)C)[C@H](C)NC(=O)[C@H]([C@@H](C)O)NC(=O)[C@H](CC(=O)O)NC(=O)[C@H](CC(C)C)NC8=O)cc6)CC5)CC4)cc3)c(c2)CNC(=O)[C@@H]2CCCN2[C@H](C(=O)NC(C)(C)C)[C@H](C)NC(=O)[C@H]([C@@H](C)O)NC(=O)[C@H](CC(=O)O)NC1=O [Compound 475] | – | – | 11 nM | –
9 | CC(C)C[C@@H]1NC(=O)c2ccc(-c3ccc(N4CCN(CCC(=O)N5CCN(c6ccc(-c7ccc8cc7CNC(=O)[C@@H]7CCCN7[C@H](C(=O)NC(C)(C)C)[C@H](C)NC(=O)[C@H]([C@@H](C)O)NC(=O)[C@H](CC(=O)O)NC(=O)[C@H](CC(C)C)NC8=O)cc6)CC5)CC4)cc3)c(c2)CNC(=O)[C@@H]2CCCN2[C@H](C(=O)NC(C)(C)C)[C@H](C)NC(=O)[C@H]([C@@H](C)O)NC(=O)[C@H](CC(=O)O)NC1=O [Compound 482] | 825 nM | – | – | –
10 | CC(C)C[C@@H]1NC(=O)c2ccc(-c3ccc(N4CCN(C(=O)CCC(=O)N5CCN(c6ccc(-c7ccc8cc7CNC(=O)[C@@H]7CCCN7[C@H](C(=O)NC(C)(C)C)[C@H](C)NC(=O)[C@H]([C@@H](C)O)NC(=O)[C@H](CC(=O)O)NC(=O)[C@H](CC(C)C)NC8=O)cc6)CC5)CC4)cc3)c(c2)CNC(=O)[C@@H]2CCCN2[C@H](C(=O)NC(C)(C)C)[C@H](C)NC(=O)[C@H]([C@@H](C)O)NC(=O)[C@H](CC(=O)O)NC1=O [Compound 484] | – | – | 5.6 nM | –
11 | CC(C)C[C@@H]1NC(=O)c2ccc(-c3ccc(N4CCN(C(=O)c5ccccc5-c5ccccc5C(=O)N5CCN(c6ccc(-c7ccc8cc7CNC(=O)[C@@H]7CCCN7[C@H](C(=O)NC(C)(C)C)[C@H](C)NC(=O)[C@H]([C@@H](C)O)NC(=O)[C@H](CC(=O)O)NC(=O)[C@H](CC(C)C)NC8=O)cc6)CC5)CC4)cc3)c(c2)CNC(=O)[C@@H]2CCCN2[C@H](C(=O)NC(C)(C)C)[C@H](C)NC(=O)[C@H]([C@@H](C)O)NC(=O)[C@H](CC(=O)O)NC1=O [Compound 517] | – | – | 7.5 nM | –
12 | CC(C)C[C@@H]1NC(=O)c2ccc(-c3ccc(N4CCN(C(=O)c5cc(C(=O)N6CCN(c7ccc(-c8ccc9cc8CNC(=O)[C@@H]8CCCN8[C@H](C(=O)NC(C)(C)C)[C@H](C)NC(=O)[C@H]([C@@H](C)O)NC(=O)[C@H](CC(=O)O)NC(=O)[C@H](CC(C)C)NC9=O)cc7)CC6)cc(C(=O)N6CCN(c7ccc(-c8ccc9cc8CNC(=O)[C@@H]8CCCN8[C@H](C(=O)NC(C)(C)C)[C@H](C)NC(=O)[C@H]([C@@H](C)O)NC(=O)[C@H](CC(=O)O)NC(=O)[C@H](CC(C)C)NC9=O)cc7)CC6)c5)CC4)cc3)c(c2)CNC(=O)[C@@H]2CCCN2[C@H](C(=O)NC(C)(C)C)[C@H](C)NC(=O)[C@H]([C@@H](C)O)NC(=O)[C@H](CC(=O)O)NC1=O [Compound 520] | – | – | 6.3 nM | –
